Data on 14 compounds can be found in ChEMBL document CHEMBL1133964, “Synthesis and biological data of 4-amino-1-(2-chloro-2-phenylethyl)-1H-pyrazolo[3,4-b]pyridine-5-carboxylic acid ethyl esters, a new series of A1-adenosine receptor (A1AR) ligands” (Bioorg Med Chem Lett, 2001).

In general, inhibition refers to how much of the control response was suppressed. For orientation: Ki means the equilibrium dissociation constant of an inhibitor or competing ligand from its target. A low value points to higher affinity.

Test [1] relates to Adenosine receptor A2a (Bos taurus). The experiment in a line: Percent inhibition of [3H]CGS-21680 binding to A2A adenosine receptor of bovine striatal membrane at 10 uM.
In a further test the target is T1, Adenosine receptor A1 (Bos taurus, UniProt P28190).
T1 sequence (P28190 whole entry): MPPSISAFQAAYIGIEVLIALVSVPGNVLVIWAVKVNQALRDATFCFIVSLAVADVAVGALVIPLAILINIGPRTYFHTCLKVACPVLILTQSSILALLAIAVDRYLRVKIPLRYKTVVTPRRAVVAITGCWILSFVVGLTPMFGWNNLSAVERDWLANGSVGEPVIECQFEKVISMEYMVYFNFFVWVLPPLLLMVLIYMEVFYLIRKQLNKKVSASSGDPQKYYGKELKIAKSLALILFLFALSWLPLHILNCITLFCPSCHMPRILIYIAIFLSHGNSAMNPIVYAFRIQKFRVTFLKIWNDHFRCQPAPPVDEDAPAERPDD
The experiment in a line: Displacement of [3H]CHA from Adenosine A1 receptor in bovine cortical membrane expressed as Ki. The test is classed as cell membranes. In general terms: Loss of bound radioactivity is the signal in a displacement assay; it reports binding, not function.

In test [2] the target is T2, Adenosine receptor A1 (Bos taurus) (UniProt P28190).
T2 sequence (whole entry): T1 sequence (P28190 whole entry)
The experiment in a line: Percent inhibition of [3H]CHA binding at Adenosine A1 receptor in bovine cortical membrane at 10 uM. Format: cell membranes.

Test [3] concerns the target Adenosine receptor A2a (Bos taurus). The test can be described thus: Displacement of [3H]CGS-21680 binding at A2A adenosine receptor in bovine striatal membrane.

Compound `CCOC(=O)c1cnc2c(cnn2CC(Cl)c2ccccc2)c1NC1CC1` (stereo not drawn) returned an inhibition in test [1] of 10%. Moreover, at Adenosine receptor A1, the inhibition constant Ki was found to be 112 nM. `CCCCNc1c(C(=O)OCC)cnc2c1cnn2CC(Cl)c1ccccc1` (stereo not drawn) came in with an inhibition in test [1] of 3%. The affinity on Adenosine receptor A1 corresponds to a Ki of 4100 nM. On Adenosine receptor A1, `CCCNc1c(C(=O)OCC)cnc2c1cnn2CC(Cl)c1ccccc1` (stereo not drawn) gave an inhibition constant (Ki) of 100 nM. Compound `CCOCCNc1c(C(=O)OCC)cnc2c1cnn2CC(Cl)c1ccccc1` (stereo not drawn) came in with a Ki on Adenosine receptor A1 of 151 nM. With `CCOC(=O)c1cnc2c(cnn2CC(Cl)c2ccccc2)c1NCc1ccccc1` (stereo not drawn), the inhibition in test [1] came out at 0%. For the same compound, on Adenosine receptor A1, the Ki was 139 nM. As for `CCOC(=O)c1cnc2c(cnn2CC(Cl)c2ccccc2)c1N1CCNCC1` (stereo not drawn), the inhibition turned out to be 6% in test [1] and 0% in test [2]. Consider `CCOC(=O)c1cnc2c(cnn2CC(Cl)c2ccccc2)c1NCCc1ccccc1` (stereo not drawn), for which the Ki at Adenosine receptor A1 stood at 50 nM. `CCOC(=O)c1cnc2c(cnn2CC(Cl)c2ccccc2)c1NC(C)(C)C` (stereo not drawn) showed an inhibitory constant (Ki) at Adenosine receptor A1 of 4800 nM.

In the case of `CCOC(=O)c1cnc2c(cnn2CC(Cl)c2ccccc2)c1N1CCCCC1` (stereo not drawn), the inhibition turned out to be 23% in test [1] and 41% in test [2].

For the compound `CCOC(=O)c1cnc2c(cnn2CC(Cl)c2ccccc2)c1N1CCOCC1` (stereo not drawn), in test [1], the inhibition was 0%. The compound also came in with an inhibitory constant (Ki) on Adenosine receptor A1 of 470 nM. On the same counts, the results for `CCOC(=O)c1cnc2c(cnn2CC(Cl)c2ccccc2)c1Nc1ccccc1` (stereo not drawn) are 11% and 348 nM.

The compound `CCOC(=O)c1cnc2c(cnn2CC(Cl)c2ccccc2)c1N1CCN(C)CC1` (stereo not drawn) returned an inhibition in test [2] of 22%. In test [3], this compound yielded a Ki of 2140 nM. As for `CCOC(=O)c1cnc2c(cnn2CC(Cl)c2ccccc2)c1N1CCCCCC1` (stereo not drawn), the values for the inhibition in test [1] and in test [2] were 22% and 35%, respectively. `CCOC(=O)c1cnc2c(cnn2CC(Cl)c2ccccc2)c1N1CCCC1` (stereo not drawn) showed a Ki on Adenosine receptor A1 of 98.2 nM.
